Test systems include CAKI-1 renal; EKVX NSCLC; K-562 leukemia; KM12 colon; MDA-MB-231 breast; NCI/ADR-RES ovarian; PC-3 prostate; SF-295 CNS; SK-OV-3 ovarian; UO-31 renal.
Assay in all cases: DTP human tumour cell line panel, 48 h

Molecules are shown by their SMILES. Several values for one entry are separate records, joined by “and”; a condition that tells them apart may be missing. Equal values may be shown once.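 Step 1: Grow cells in 96-well plates. Step 2: Expose to compound for 48 hours at 5 concentrations. Step 3: Interpolate endpoints linearly; if unreached, use highest concentration. GI50 is the concentration that inhibits growth by half. TGI is the concentration that stops growth completely.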

As usually defined, the GI50 is the concentration that inhibits growth by half. Broadly, the TGI is the concentration giving total growth inhibition. As to `COC(=O)c1cc2c(s1)-c1nccc3c1c(nc1ccccc13)C2=O`, the GI50 in the test with CAKI-1 renal was > 100 µM; with EKVX NSCLC it was > 100 µM; in the test on K-562 leukemia it was > 100 µM; in the test with KM12 colon, 69.4 µM; in the test with MDA-MB-231 breast, 28.6 µM; in the test with NCI/ADR-RES ovarian, > 100 µM. Further, the GI50 in the test on PC-3 prostate, in the test with SF-295 CNS, in the test on SK-OV-3 ovarian and in the test with UO-31 renal was > 100 µM in each case. In addition, the total growth inhibition concentration (TGI) in the test with CAKI-1 renal, in the test with EKVX NSCLC, with K-562 leukemia, in the test with KM12 colon, with MDA-MB-231 breast and in the test with NCI/ADR-RES ovarian was > 100 µM in each case. For the same molecule, the total growth inhibition concentration (TGI) with PC-3 prostate, with SF-295 CNS, in the test on SK-OV-3 ovarian and in the test with UO-31 renal was > 100 µM each time.

Regarding `O=S(=O)(Nc1ccc(Cl)cc1Cl)c1ccc(-c2cnc(C3CC3)o2)cc1`, the GI50 in the test on CAKI-1 renal is 0.505 µM; in the test with EKVX NSCLC, 2.56 µM; with K-562 leukemia it was 0.382 µM; with KM12 colon, 0.485 µM; in the test with MDA-MB-231 breast, 2.08 µM; in the test with NCI/ADR-RES ovarian it was 0.51 µM. The GI50 was 0.612 µM in the test with PC-3 prostate, 0.335 µM in the test on SF-295 CNS, 7.1 µM in the test with SK-OV-3 ovarian and 1.06 µM with UO-31 renal. The TGI was 55.9 µM with CAKI-1 renal; 88.6 µM in the test with EKVX NSCLC; > 100 µM in the test with K-562 leukemia; 25.9 µM in the test on KM12 colon; 28.4 µM with MDA-MB-231 breast; 17.5 µM in the test with NCI/ADR-RES ovarian. Also, the TGI in the test with PC-3 prostate was > 53.2 µM; in the test on SF-295 CNS it was 3.4 µM; in the test with SK-OV-3 ovarian it was 99.4 µM; in the test on UO-31 renal, 37.1 µM.

On to `CC1CCN(C(=O)OCc2nc3nc(Cl)nc(N4CCOCC4)c3[nH]2)CC1`, for which the GI50 is 0.72 µM in the test on CAKI-1 renal; 1.48 µM with EKVX NSCLC; 0.434 µM in the test on K-562 leukemia; 1.58 µM in the test with KM12 colon; 1.25 µM in the test with MDA-MB-231 breast; 2.21 µM in the test with NCI/ADR-RES ovarian. The GI50 in the test with PC-3 prostate is 0.832 µM; with SF-295 CNS it was 3.76 µM; with SK-OV-3 ovarian, 7.35 µM; in the test on UO-31 renal, 0.692 µM. Besides, the TGI with CAKI-1 renal amounted to 2.27 µM; in the test on EKVX NSCLC, 3.3 µM; in the test with K-562 leukemia it was 13.6 µM; in the test with KM12 colon, 3.33 µM; with MDA-MB-231 breast, 2.7 µM; in the test on NCI/ADR-RES ovarian, 10.4 µM. The TGI in the test with PC-3 prostate came to 2.42 µM; in the test on SF-295 CNS it was 15.3 µM; in the test with SK-OV-3 ovarian it was 21 µM; in the test with UO-31 renal, 2.05 µM.

For the molecule `CCc1c(Cl)c(C)cc(O)c1Cl`, the TGI in the test on CAKI-1 renal, in the test on EKVX NSCLC, in the test with K-562 leukemia, in the test on KM12 colon, in the test on MDA-MB-231 breast and with NCI/ADR-RES ovarian was > 100 µM in each case. Moreover, the TGI with PC-3 prostate is 51.3 µM; in the test with SF-295 CNS, > 100 µM; in the test with SK-OV-3 ovarian, > 100 µM; in the test with UO-31 renal it was 56.8 µM.

Regarding `O=[N+]([O-])c1cccc2ccc(N/N=C/c3ccccc3O)nc12`, the GI50 in the test with CAKI-1 renal is > 100 µM; in the test on EKVX NSCLC, > 100 µM; in the test with K-562 leukemia, 1.46 µM; in the test on KM12 colon, > 100 µM; in the test on MDA-MB-231 breast it was > 100 µM; in the test on NCI/ADR-RES ovarian, > 100 µM. Besides, the GI50 in the test on PC-3 prostate was 4.67 µM; with SF-295 CNS it was > 87.6 µM; with SK-OV-3 ovarian, > 100 µM; with UO-31 renal, > 39.9 µM. The TGI in the test with CAKI-1 renal, in the test with EKVX NSCLC, in the test with K-562 leukemia, in the test with KM12 colon, with MDA-MB-231 breast and in the test on NCI/ADR-RES ovarian was > 100 µM each time. The TGI in the test with PC-3 prostate, in the test with SF-295 CNS, with SK-OV-3 ovarian and with UO-31 renal was > 100 µM in each case.

With `Oc1ccc2ccccc2c1N=Nc1ccc(Br)cc1`, the TGI in the test on CAKI-1 renal, in the test with EKVX NSCLC, with K-562 leukemia, with KM12 colon, with MDA-MB-231 breast and in the test on NCI/ADR-RES ovarian was > 100 µM each time. For the same molecule, the TGI in the test with PC-3 prostate, with SF-295 CNS, with SK-OV-3 ovarian and with UO-31 renal was > 100 µM in each case.

`COc1ccc2c(c1)c[n+](C)c1c3cc(OC)c(OC)cc3ccc21`: the TGI in the test with CAKI-1 renal is 32.2 µM and 44 µM; in the test on EKVX NSCLC it was 4.52 µM and 42.3 µM; in the test on K-562 leukemia, 43.1 µM; in the test on KM12 colon, 2.79 µM and 9.42 µM; in the test with MDA-MB-231 breast, 2.83 µM and 3.07 µM; with NCI/ADR-RES ovarian, > 100 µM. For the same molecule, the TGI is 3.84 µM and 16 µM with PC-3 prostate; 17.8 µM with SF-295 CNS; 29.4 µM in the test with SK-OV-3 ovarian; 5.13 µM and 22.5 µM in the test on UO-31 renal. Also, the GI50 is 1.5 µM and 11.3 µM in the test with EKVX NSCLC; 1.21 µM and 2.88 µM in the test on KM12 colon; 1.36 µM and 4.32 µM in the test on PC-3 prostate; 5.06 µM in the test on SF-295 CNS; 2.22 µM and 9.28 µM with UO-31 renal.

`CSc1ccccc1C#C/C=C\C#Cc1ccccc1N`: the 50% growth inhibitory concentration (GI50) in the test with CAKI-1 renal was 0.32 µM; in the test on EKVX NSCLC, 16.9 µM; in the test on K-562 leukemia, 5.08 µM; in the test on KM12 colon, 2.92 µM; with MDA-MB-231 breast, 4.69 µM; in the test with NCI/ADR-RES ovarian it was 4.05 µM. Further, the GI50 was 14.5 µM in the test on PC-3 prostate, 1.83 µM in the test with SF-295 CNS, 31.4 µM with SK-OV-3 ovarian and 17 µM with UO-31 renal. The TGI was 1.68 µM in the test with CAKI-1 renal; 57.4 µM in the test with EKVX NSCLC; > 100 µM in the test with K-562 leukemia; 10.4 µM in the test on KM12 colon; 22.2 µM with MDA-MB-231 breast; 16 µM with NCI/ADR-RES ovarian. For the same molecule, the TGI in the test with PC-3 prostate is > 100 µM; in the test with SF-295 CNS it was 5.55 µM; with SK-OV-3 ovarian it was 96.5 µM; in the test on UO-31 renal, > 100 µM.
